Experimental data from US4361563A, “Pyridazinone-substituted benzimidazoles and salts” (priority 1978, dated 1982).
Counter-ions that a name gives are not always drawn.

Assays:
cats = assay: Determination of the hypotensive and positive inotropic activity in the cat; format: in vivo; conditions: for change in vivo at 0.1 mg/kg / change in vivo at 0.5 mg/kg / change in vivo at 2 mg/kg: Felis catus, iv, read-out: Change of dp/dt in %
Description: TEST 2. DETERMINATION OF THE HYPOTENSIVE AND POSITIVE INOTROPIC ACTIVITY IN THE CAT
The tests were performed in cats which were anesthetized with pentobarbital sodium (40 mg/kg i.p.). The animals breathed spontaneously. The arterial blood pressure was measured in the aorta abdominalis by a Statham pressure transducer (P 23 Dc). The positive inotropic effect was determined by measuring the pressure in the left […] by means of a catheter tipmanometer (Millar PC 350 A). This contractility parameter dp/dtmax was registered by means of an analog differentiating circuit. The substances under test were injected into a vena femoralis. Physiological sodium […] solution or polydiol 200 was used as solvent.

thrombocyte aggregation = assay: Determination of the thrombocyte aggregation according to Born and Cross (collagen-provoked, platelet-rich plasma); format: cell-based, healthy test persons; conditions: collagen-induced aggregation
Description: TEST 1. DETERMINATION OF THE THROMBOCYTE AGGREGATION ACCORDING TO BORN AND CROSS [J. PHYSIOL. 170, 397 (1964)].
The thrombocyte aggregation was measured in platelet-rich plasma of healthy test persons. The decrease of the optical density was photometrically measured and recorded after addition of commercial collagen (Sigma, St. Louis, Mo., USA) which contained […] of collagen-fibrils per ml. The velocity of aggregation (Vmax) was determined by the angle of inclination of the density curve. The point of the curve, where the most light was transmitted, served for the determination of the optical density (o.d.). To provoke maximum aggregation, approximately 0.01 ml of the collagen solution was added to 1 ml of platelet-rich plasma.

[1] = Acute toxicity, single oral dose; format: in vivo; conditions: mouse, in vivo, po; read-out: Acute toxicity mg/kg p.o.
Description: (§1) The acute toxicity of the substances tested was determined in white mice after oral adminstration of a single dose (observation time: 14 days).

white mice = assay: Acute toxicity, single oral dose; format: in vivo; conditions: white mice, 250 mg/kg p.o., 14 days observation
Description: as §1

Structure (SMILES) | Change of blood pressure, first value of the pair (before the slash) (cats; 0.1 mg/kg i.v.) | Change of blood pressure, second value of the pair (after the slash) (cats; 0.1 mg/kg i.v.) | Duration of action (cats; 0.1 mg/kg i.v.) | Change of blood pressure, first value of the pair (before the slash) (cats; 0.5 mg/kg i.v.) | Change of blood pressure, second value of the pair (after the slash) (cats; 0.5 mg/kg i.v.) | Duration of action (cats; 0.5 mg/kg i.v.) | change in vivo at 0.1 mg/kg (cats; 0.1 mg/kg i.v.) | change in vivo at 0.5 mg/kg (cats; 0.5 mg/kg i.v.) | EC50 (thrombocyte aggregation) | LD50 at 336 h [1] | animals died (white mice) | Change of blood pressure, first value of the pair (before the slash) (cats; 2.0 mg/kg i.v.) | Change of blood pressure, second value of the pair (after the slash) (cats; 2.0 mg/kg i.v.) | Duration of action (cats; 2.0 mg/kg i.v.) | change in vivo at 2 mg/kg (cats; 2.0 mg/kg i.v.)
CCCC(C)c1nc2cc(C3=NNC(=O)CC3C)ccc2[nH]1 (stereo not shown) [I, 2-(2-Pentyl)-5(6)-(5-methyl-3-oxo-4,5-dihydro-2H-6-pyridazinyl)-benzimidazole hydrochloride] | -10 mgm Hg | -13 mgm Hg | > 53 min | -28 mgm Hg | -33 mgm Hg | > 52 min | 83% | 103% |  |  |  |  |  |  | 
COc1ccc(-c2nc3cc(C4=NNC(=O)CC4C)ccc3n2C)cc1 (stereo not shown) [K, 1-Methyl-2-(4-methoxy-phenyl)-5-(5-methyl-3-oxo-4,5-dihydro-2H-6-pyridazinyl)-benzimidazole] |  |  |  | -28 mgm Hg | -34 mgm Hg | > 40 min |  | 50% |  |  |  |  |  |  | 
Cc1nc2cc(C3=NNC(=O)CC3C)ccc2n1CCC(C)C (stereo not shown) [L, 1-(3-Methyl-butyl)-2-methyl-5-(5-methyl-3-oxo-4,5-dihydro-2H-6-pyridazinyl)-benzimidazole] |  |  |  |  |  |  |  |  | 50 nM |  |  |  |  |  | 
Cc1nc2cc(C3=NNC(=O)CC3C)ccc2n1Cc1ccccc1 (stereo not shown) [M, 1-Benzyl-2-methyl-5-(5-methyl-3-oxo-4,5-dihydro-2H-6-pyridazinyl)-benzimidazole] | -37 mgm Hg | -33 mgm Hg | > 62 min | -57 mgm Hg | -48 mgm Hg | > 110 min | 123% | 106% |  |  |  |  |  |  | 
Cc1nc2cc(C3=NNC(=O)C(C)C3)ccc2[nH]1 (stereo not shown) [N, 2-Methyl-5(6)-(4-methyl-3-oxo-4,5-dihydro-2H-6-pyridazinyl)-benzimidazole, reference compound] |  |  |  |  | 3 mgm Hg | 22 min |  | 23% | 1000 nM | > 250 mg/kg | 0 out of 10 |  |  |  | 
COc1ccc(-c2nc3cc(C4=NNC(=O)C(C)C4)ccc3[nH]2)c(OC)c1 (stereo not shown) [O, 2-(2,4-Dimethoxy-phenyl)-5(6)-(4-methyl-3-oxo-4,5-dihydro-2H-6-pyridazinyl)-benzimidazole, reference compound] |  |  |  | +15 mgm Hg | 6 mgm Hg | 2 min |  | 10% |  |  |  |  |  |  | 
COc1ccc(-c2nc3cc(C4=NNC(=O)C(C)C4)ccc3[nH]2)cc1 (stereo not shown) [P, 2-(4-Methoxy-phenyl)-5(6)-(4-methyl-3-oxo-4,5-dihydro-2H-6-pyridazinyl)-benzimidazole, reference compound] |  |  |  | -10 mgm Hg | -10 mgm Hg | 1 min |  | 9% |  |  |  | -35 mgm Hg | -35 mgm Hg | 1 min | 5%
COc1ccc(-c2nc3cc(C4=NN(C)C(=O)C(C)C4)ccc3[nH]2)cc1 (stereo not shown) [Q, 2-(4-Methoxy-phenyl)-5(6)-(2,4-dimethyl-3-oxo-4,5-dihydro-2H-6-pyridazinyl)-benzimidazole, reference compound] |  |  |  | -12 mgm Hg | -12 mgm Hg | 11 min |  | -16% |  |  |  | -40 mgm Hg |  | 3 min | -26%
